Experimental data from US8232407B2, “Nitrogenous heterocyclic compounds with insecticidal activity, and the preparation and use thereof” (East China University of Science and Technology, priority 2008, dated 2012).

Key:
Assay type in all cases: in vivo
[1] = tested on: Pseudaletia separate Walker; test: Insecticidal activities to armyworm, leaf dipping and feeding
Summary of the method: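 Maize leaves dipped 3 s in acetone-formulated compound at 500 down to 1.57 ppm, dried and fed to armyworms, 10 insects per treatment in triplicate, aqueous acetone as control. Mortality was counted after 24 hours and corrected against control survival.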

Aphis craccivoral = test: Insecticidal activities to aphids, immersion method; conditions: for Aphis craccivoral Mortality (%) 500 ppm: in vivo
Summary of the method: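 Wingless adult aphids feeding on bean sprouts were dipped 5 s in 500 ppm compound (DMF stock diluted in 0.2 mL/L aqueous Triton X-100), blotted and held at 23° C. Dead counted at 24 h, three replicates; mortality corrected against Triton-only controls.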

Plutella xylostella = test: Insecticidal activities to diamondback moth, feeding dipped leaves; conditions: for Plutella xylostella Mortality (%) 500 ppm: in vivo
Summary of the method: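 Leaf-dip feeding assay: fresh cabbage leaves dipped 3 s in test solution, air-dried and fed to Plutella xylostella, 10 insects per treatment, three replicates, water control. Deaths counted after 24 h; mortality corrected against survival in the control group.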

Nilaparvata lugens = test: Insecticidal activities to plant hopper, spraying method; conditions: for Nilaparvata lugens Mortality (%) 500 ppm: in vivo
Summary of the method: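 Nilaparvata lugens, 10 insects per tumbler, sprayed with 2 ml compound in acetone at 0.79-500 ppm, three replicates, aqueous acetone control. Dead insects counted after 24 h; mortality corrected against control survival.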

SMILES | Pseudaletia separate Walker Mortality (%) 500 ppm ([1]; in vivo) | Aphis craccivoral Mortality (%) 500 ppm (Aphis craccivoral) | Plutella xylostella Mortality (%) 500 ppm (Plutella xylostella) | Nilaparvata lugens Mortality (%) 500 ppm (Nilaparvata lugens) | Pseudaletia separate Walker Mortality (%) 500 ppm ([1]; 500 ppm, leaf dipping and feeding, counted after 24 hours) | mortality at 500 ppm (Aphis craccivoral; Aphis, 500 ppm, immersion method, read-out: Aphis craccivoral Mortality (%) 500 ppm) | mortality at 500 ppm (Plutella xylostella; Plutella xylostella, 500 ppm, feeding dipped leaves, counted after 24 hours, read-out: Plutella xylostella Mortality (%) 500 ppm) | mortality at 500 ppm (Nilaparvata lugens; Nilaparvata lugens, 500 ppm, spraying method, counted after 24 hours, read-out: Nilaparvata lugens Mortality (%) 500 ppm)
C[N+]1=C(C(=Cc2cccs2)[N+](=O)[O-])N(Cc2cnc(Cl)s2)CC1.[Cl-] [Compound 280] | 100% | 100% | 100% | 100% | – | – | – | –
O=[N+]([O-])C(=Cc1ccsc1)C1=NCCN1Cc1cnc(Cl)s1 [Compound 84] | 100% | 100% | 100% | 100% | – | – | – | –
O=[N+]([O-])C(=Cc1oc(Cl)cc1Cl)C1=NCCCN1Cc1ccc(Cl)nc1 [Compound 54] | 100% | 100% | 100% | 100% | – | – | – | –
CCc1ccc(C=C(C2=NCCN2Cc2cnc(Cl)s2)[N+](=O)[O-])o1 [Compound 81] | 100% | 100% | 100% | 100% | – | – | – | –
O=[N+]([O-])C(=Cc1oc(Br)cc1Br)C1=NCCCN1Cc1ccc(Cl)nc1 [Compound 56] | 100% | 100% | 100% | 100% | – | – | – | –
C[N+]1=C(C(=Cc2cc(Br)co2)[N+](=O)[O-])N(Cc2ccc(Cl)nc2)CC1.[Cl-] [Compound 250] | 100% | 100% | 100% | 100% | – | – | – | –
C[N+]1=C(C(=Cc2ccc(Cl)o2)[N+](=O)[O-])N(Cc2cnc(Cl)s2)CC1.[Cl-] [Compound 278] | 100% | 100% | 100% | 100% | – | – | – | –
CCc1ccc(C=C(C2=NCCN2CC2CCOC2)[N+](=O)[O-])o1 (stereo not drawn) [Compound 101] | 65% | 76% | 78% | 65% | – | – | – | –
C[N+]1=C(C(=Cc2ccc(Cl)s2)[N+](=O)[O-])N(Cc2ccc(Cl)nc2)CC1.[Cl-] [Compound 262] | 100% | 100% | 100% | 100% | – | – | – | –
C[N+]1=C(C(=Cc2ccc[nH]2)[N+](=O)[O-])N(Cc2ccc(Cl)nc2)CC1.[Cl-] [Compound 274] | 100% | 100% | 100% | 100% | – | – | – | –
C[N+]1=C(C(=Cc2ccc([N+](=O)[O-])s2)[N+](=O)[O-])N(Cc2cnc(Cl)s2)CC1.[Cl-] [Compound 282] | 100% | 100% | 100% | 100% | – | – | – | –
O=[N+]([O-])C(=Cc1ccc[nH]1)C1=NCCN1Cc1ccc(Cl)nc1 [Compound 31] | 100% | 100% | 100% | 100% | – | – | – | –
Cn1cccc1C=C(C1=NCCN1Cc1ccc(Cl)nc1)[N+](=O)[O-] [Compound 32] | 100% | 100% | 100% | 100% | – | – | – | –
O=[N+]([O-])C(=Cc1cc(Br)c(Br)o1)C1=NCCN1CC1CCOC1 (stereo not drawn) [Compound 100] | 100% | 90% | 100% | 100% | – | – | – | –
O=[N+]([O-])C(=Cc1cc(Cl)co1)C1=NCCN1CC1CCOC1 (stereo not drawn) [Compound 96] | 58% | 32% | 52% | 50% | – | – | – | –
C[N+]1=C(/C(=C\c2ccc[nH]2)[N+](=O)[O-])N(Cc2cnc(Cl)s2)CC1.[Cl-] [Compound 284] | 100% | 100% | 100% | 100% | – | – | – | –
O=[N+]([O-])C(=Cc1ccc(Cl)s1)C1=NCCN1Cc1ccc(Cl)nc1 [Compound 19] | 100% | 100% | 100% | 100% | – | – | – | –

SMILES | Pseudaletia separate Walker Mortality (%) 500 ppm ([1]; in vivo) | Aphis craccivoral Mortality (%) 500 ppm (Aphis craccivoral) | Plutella xylostella Mortality (%) 500 ppm (Plutella xylostella) | Nilaparvata lugens Mortality (%) 500 ppm (Nilaparvata lugens) | Pseudaletia separate Walker Mortality (%) 500 ppm ([1]; 500 ppm, leaf dipping and feeding, counted after 24 hours) | mortality at 500 ppm (Aphis craccivoral; Aphis, 500 ppm, immersion method, read-out: Aphis craccivoral Mortality (%) 500 ppm) | mortality at 500 ppm (Plutella xylostella; Plutella xylostella, 500 ppm, feeding dipped leaves, counted after 24 hours, read-out: Plutella xylostella Mortality (%) 500 ppm) | mortality at 500 ppm (Nilaparvata lugens; Nilaparvata lugens, 500 ppm, spraying method, counted after 24 hours, read-out: Nilaparvata lugens Mortality (%) 500 ppm)
CC(c1ccc(Cl)nc1)N1CCN=C1C(=Cc1ccoc1)[N+](=O)[O-] (racemic) [Compound 123] | 100% | 100% | 100% | 100% | – | – | – | –
N#CC(=Cc1ccoc1)C1=NCCN1Cc1ccc(Cl)nc1 [Compound 141] | 100% | 100% | 100% | 100% | – | – | – | –
C[N+]1=C(C(=Cc2ccc([N+](=O)[O-])s2)[N+](=O)[O-])N(Cc2ccc(Cl)nc2)CC1.[Cl-] [Compound 261] | 100% | 100% | 100% | 100% | – | – | – | –
C[N+]1=C(C(=Cc2ccc(Cl)o2)[N+](=O)[O-])N(Cc2ccc(Cl)nc2)CC1.[Cl-] [Compound 247] | 100% | 100% | 100% | 100% | – | – | – | –
O=[N+]([O-])C(=Cc1cc(Cl)c(Cl)o1)C1=NCCN1Cc1ccc(Cl)nc1 [Compound 8] | 100% | 100% | 100% | 100% | – | – | – | –
O=[N+]([O-])C(=Cc1ccccc1)C1=NCCN1Cc1ccc(Cl)nc1 [Compound 44] | 97% | 67% | 100% | 92% | – | – | – | –
CC(c1ccc(Cl)nc1)N1CCN=C1C(=Cc1ccc[nH]1)[N+](=O)[O-] (racemic) [Compound 131] | 100% | 100% | 63% | 100% | – | – | – | –
O=[N+]([O-])C(=Cc1ccc(Cl)o1)C1=NCCCN1Cc1ccc(Cl)nc1 [Compound 49] | 100% | 100% | 100% | 100% | – | – | – | –
C[N+]1=C(C(=Cc2ccc(Cl)s2)[N+](=O)[O-])N(Cc2cnc(Cl)s2)CC1.[Cl-] [Compound 283] | 100% | 100% | 100% | 100% | – | – | – | –
O=[N+]([O-])/C(=C/c1ccoc1)C1=NCCN1Cc1ccc(Cl)nc1 [Compound 2, 2-chloro-5-((2-(2-(furan-3-yl)-1-nitrovinyl)-4,5-dihydro-imidazol-1-yl)-methyl) pyridine] | – | – | – | – | 100% | 100% | 100% | 100%
CC(=C(C1=NCCN1Cc1ccc(Cl)nc1)[N+](=O)[O-])c1cc(Cl)cs1 [Compound 120] | 59% | 52% | 68% | 86% | – | – | – | –
CC[N+]1=C(/C(=C\c2ccc[nH]2)[N+](=O)[O-])N(Cc2ccc(Cl)nc2)CC1.[Cl-] [Compound 295] | 100% | 100% | 100% | 100% | – | – | – | –
O=[N+]([O-])C(=Cc1cncs1)C1=NCCN1Cc1ccc(Cl)nc1 [Compound 34] | 100% | 100% | 100% | 100% | – | – | – | –
CC[N+]1=C(C(=Cc2ccc(Cl)s2)[N+](=O)[O-])N(Cc2ccc(Cl)nc2)CC1.[Cl-] [Compound 294] | 100% | 100% | 100% | 100% | – | – | – | –
O=[N+]([O-])C(=Cc1ccc([N+](=O)[O-])o1)C1=NCCN1Cc1ccccc1 [Compound 105] | 98% | 80% | 90% | 100% | – | – | – | –
O=[N+]([O-])C(=Cc1oc(Cl)cc1Cl)C1=NCCN1Cc1ccccc1 [Compound 109] | 60% | 91% | 56% | 100% | – | – | – | –
